# Experimental data taken from US5726203A, “Qinghaosu derivatives against AIDS” (priority 1993, dated 1998).
# Like-named read-outs stand apart in the source and are kept apart here.
# System: Toxoplasma Gendei
# Experiment: Antitoxoplasma effect in vitro in BALB/C mouse macrophages
# Type: cell-based
# Conditions: for Infected rate of macrophages / No. of parasites in 100 macrophages / inhibition at 50 µg/mL / inhibition at 100 µg/mL / inhibition at 200 µg/mL: 48 hours; for Infected rate of macrophages: control 75.60; for No. of parasites in 100 macrophages: control 544.00; for inhibition at 50 µg/mL / inhibition at 100 µg/mL / inhibition at 200 µg/mL: Toxoplasma, Macrophage
# Protocol: In vitro incubation was used in the experiment. Macrophages were taken from intraperitoneal of the uninfected BALB/C mice (obtained from Universite Pierre et Marie Curie), centrafuged, washed and counted. Around 1.28×10^5 cells was added into each culture dish, incubated at 37° C. for 3 hours to let the cells to be adherented, then infected by parasites (Toxoplasma Gendei, obtained from Universite Pierre et Marie Curie), in which parasite number was 1×106, so that there were 5 organisms per macrophage. The dishes were incubated at 37° C. for 48 hours, different concentration, (i.e., 50 μg/ml, 100 μg/ml, 200 μg/ml) of the compound according to the present invention was added in. In a control group, no drug was added in. After being cultured at 37° C. for 48 hours, dishes of compound treated groups and control group were colorated. Under microscope, the number of infected and uninfected macrophages in each dishes were counted and to calculated infected rate of macrophage and to count the number of parasites in 100 macrophages.
smiles,measurement,setting,value
"CNC(=O)OC1OC2OC3(C)CCC4C(C)CCC(C1C)C24OO3 (stereo not shown) [Dihydroqinghaosu-methylcarbamate, Dihydroqinghaosu-Methylcarbamate]",Infected rate of macrophages,50 μg/ml,0.67
same,No. of parasites in 100 macrophages,50 μg/ml,2.67
same,Infected rate of macrophages,100 μg/ml,0
same,No. of parasites in 100 macrophages,100 μg/ml,0
same,Infected rate of macrophages,200 μg/ml,0
same,No. of parasites in 100 macrophages,200 μg/ml,0
same,inhibition at 50 µg/mL,"50 μg/ml, read-out: Inhibition rate (No. of parasites in 100 macrophages)",99.5%
same,inhibition at 50 µg/mL,"50 μg/ml, read-out: Inhibition rate (infected rate of macrophages)",99.1%
same,inhibition at 100 µg/mL,"100 μg/ml, read-out: Inhibition rate (No. of parasites in 100 macrophages)",100%
same,inhibition at 100 µg/mL,"100 μg/ml, read-out: Inhibition rate (infected rate of macrophages)",100%
same,inhibition at 200 µg/mL,"200 μg/ml, read-out: Inhibition rate (No. of parasites in 100 macrophages)",100%
same,inhibition at 200 µg/mL,"200 μg/ml, read-out: Inhibition rate (infected rate of macrophages)",100%
same,inhibition on Toxoplasma Gendei in vitro,in words,obvious inhibition on Toxoplasma Gendei in vitro
